Results reported in patent publication US10770169B2, “Method of providing a treatment to a subject based on a dynamic pathway map” (THE REGENTS OF THE UNIVERSITY OF CALIFORNIA, priority 2010, dated 2020).
Like-named read-outs stand apart in the source and are kept apart here.

Tested on: panel of 55 breast cancer cell lines
Test: Cell growth inhibition assay (Cell Titer Glo, 72 h, 9 doses; GI50, TGI, LC50)
Assay type: cell-based, human
Settings: Homo sapiens, read-out: GI50 (converted)

## CC(C)C[C@H](NC(=O)[C@H](Cc1ccccc1)NC(=O)c1cnccn1)B(O)O [Bortezomib]
600MPE cell line, censored GI50 values
  GI50: 427 nM
AU565, AU565 cell line, censored GI50 values
  GI50: 5.25 nM
AU565, cell line AU565
  GI50: 5.25 nM
BT-20, BT20 cell line, censored GI50 values
  GI50: 46.8 nM
BT-20, cell line BT20
  GI50: 46.8 nM
BT-474, BT474 cell line, censored GI50 values
  GI50: 7.41 nM
BT-474, cell line BT474
  GI50: 7.41 nM
BT-483, BT483 cell line, censored GI50 values
  GI50: 19.5 nM
BT-483, cell line BT483
  GI50: 19.5 nM
BT-549, BT549 cell line, censored GI50 values
  GI50: 6.03 nM
BT-549, cell line BT549
  GI50: 6.03 nM
CAMA-1, CAMA1 cell line, censored GI50 values
  GI50: 16.6 nM
CAMA-1, cell line CAMA1
  GI50: 16.6 nM
HCC38, HCC38 cell line, censored GI50 values
  GI50: 11 nM
HCC38, cell line HCC38
  GI50: 11 nM
HCC70, HCC70 cell line, censored GI50 values
  GI50: 1.78 nM
HCC70, cell line HCC70
  GI50: 1.78 nM
HCC202, HCC202 cell line, censored GI50 values
  GI50: 7.24 nM
HCC202, cell line HCC202
  GI50: 7.24 nM
HCC1143, HCC1143 cell line, censored GI50 values
  GI50: 8.51 nM
HCC1143, cell line HCC1143
  GI50: 8.51 nM
HCC1187, HCC1187 cell line, censored GI50 values
  GI50: 3.39 nM
HCC1187, cell line HCC1187
  GI50: 3.39 nM
HCC1395, HCC1395 cell line, censored GI50 values
  GI50: 7.24 nM
HCC1395, cell line HCC1395
  GI50: 7.24 nM
HCC1419, HCC1419 cell line, censored GI50 values
  GI50: 4.37 nM
HCC1419, cell line HCC1419
  GI50: 4.37 nM
HCC1428, HCC1428 cell line, censored GI50 values
  GI50: 91.2 nM
HCC1428, cell line HCC1428
  GI50: 91.2 nM
HCC1500, HCC1500 cell line, censored GI50 values
  GI50: 12.3 nM
HCC1500, cell line HCC1500
  GI50: 12.3 nM
HCC1806, HCC1806 cell line, censored GI50 values
  GI50: 22.9 nM
HCC1806, cell line HCC1806
  GI50: 22.9 nM
HCC1937, HCC1937 cell line, censored GI50 values
  GI50: 7.59 nM
HCC1937, cell line HCC1937
  GI50: 7.59 nM
HCC1954, HCC1954 cell line, censored GI50 values
  GI50: 10 nM
HCC1954, cell line HCC1954
  GI50: 10 nM
HCC2185 cell line, censored GI50 values
  GI50: 4.47 nM
HCC3153 cell line, censored GI50 values
  GI50: 10.5 nM
LY2 cell line, censored GI50 values
  GI50: 603 nM
MCF7, MCF7 cell line, censored GI50 values
  GI50: 19.1 nM
MCF7, cell line MCF7
  GI50: 19.1 nM
MDA-MB-134-VI, MDAMB134VI cell line, censored GI50 values
  GI50: 8.32 nM
MDA-MB-157, MDAMB157 cell line, censored GI50 values
  GI50: 6.92 nM
MDA-MB-157, cell line MDAMB157
  GI50: 6.92 nM
MDA-MB-175-VII, MDAMB175VII cell line, censored GI50 values
  GI50: 5.25 nM
MDA-MB-231, MDAMB231 cell line, censored GI50 values
  GI50: 27.5 nM
MDA-MB-231, cell line MDAMB231
  GI50: 27.5 nM
MDA-MB-361, MDAMB361 cell line, censored GI50 values
  GI50: 6030 nM
MDA-MB-361, cell line MDAMB361
  GI50: 6030 nM
MDA-MB-415, MDAMB415 cell line, censored GI50 values
  GI50: 32.4 nM
MDA-MB-415, cell line MDAMB415
  GI50: 32.4 nM
MDA-MB-436, MDAMB436 cell line, censored GI50 values
  GI50: 8.71 nM
MDA-MB-436, cell line MDAMB436
  GI50: 8.71 nM
MDA-MB-453, MDAMB453 cell line, censored GI50 values
  GI50: 6.92 nM
MDA-MB-453, cell line MDAMB453
  GI50: 6.92 nM
MDA-MB-468, MDAMB468 cell line, censored GI50 values
  GI50: 14.1 nM
MDA-MB-468, cell line MDAMB468
  GI50: 14.1 nM
SK-BR-3, SKBR3 cell line, censored GI50 values
  GI50: 7.59 nM
SK-BR-3, cell line SKBR3
  GI50: 7.59 nM
SUM52PE, SUM52PE cell line, censored GI50 values
  GI50: 5.25 nM
SUM52PE, cell line SUM52PE
  GI50: 5.25 nM
SUM149PT, SUM149PT cell line, censored GI50 values
  GI50: 7.41 nM
SUM149PT, cell line SUM149PT
  GI50: 7.41 nM
SUM185PE, SUM185PE cell line, censored GI50 values
  GI50: 5.37 nM
SUM185PE, cell line SUM185PE
  GI50: 5.37 nM
SUM225CWN, SUM225CWN cell line, censored GI50 values
  GI50: 10.5 nM
SUM225CWN, cell line SUM225CWN
  GI50: 10.5 nM
SUM1315MO2, SUM1315MO2 cell line, censored GI50 values
  GI50: 13.8 nM
SUM-159-PT, SUM159PT cell line, censored GI50 values
  GI50: 7.41 nM
SUM-159-PT, cell line SUM159PT
  GI50: 7.41 nM
T47D, T47D cell line, censored GI50 values
  GI50: 8.32 nM
T47D, cell line T47D
  GI50: 8.32 nM
UACC-812, UACC812 cell line, censored GI50 values
  GI50: 24 nM
UACC-812, cell line UACC812
  GI50: 24 nM
UACC-893, UACC893 cell line, censored GI50 values
  GI50: 0.646 nM
UACC-893, cell line UACC893
  GI50: 0.646 nM
ZR-75-1, ZR751 cell line, censored GI50 values
  GI50: 17.4 nM
ZR-75-1, cell line ZR751
  GI50: 17.4 nM
ZR-75B, ZR75B cell line, censored GI50 values
  GI50: 132 nM
ZR-75B, cell line ZR75B
  GI50: 132 nM
Cell line 600MPE
  GI50: 427 nM
Cell line HCC2185
  GI50: 4.47 nM
Cell line HCC3153
  GI50: 10.5 nM
Cell line LY2
  GI50: 603 nM
Cell line MDAMB134V
  GI50: 8.32 nM
Cell line MDAMB175V
  GI50: 5.25 nM
Cell line SUM1315MO
  GI50: 13.8 nM
